{
  "source": "paper PMC3753754",
  "about": "“Andrographis paniculata Extract and Andrographolide Modulate the Hepatic Drug Metabolism System and Plasma Tolbutamide Concentrations in Rats” (Evidence-based Complementary and Alternative Medicine : eCAM, 2013)",
  "key": {"[1]": {"assay": "Rat growth: body weight and liver weight after 5 days of daily oral dosing", "type": "in vivo, Sprague-Dawley rats", "conditions": "rats, oral 2 g/kg APE or 50 mg/kg AND daily for 5 days", "description": "Seven-week-old male Sprague-Dawley rats cannulated in the jugular vein were purchased from the Bio LASCO Experimental Animal Center (Taipei, Taiwan). The animals were fed a standard rat diet and were randomly assigned into control, APE-treated, and andrographolide-treated groups (n = 5). Rats were housed in plastic cages in a room kept at 23 ± 1°C and 60 ± 5% relative humidity with a 12-hour light and dark cycle. Food and drinking water were available ad libitum. Control rats were orally administered methyl cellulose. […] After the 5th daily dose, rats were deprived of food overnight. On day 6, a 20 mg/kg oral dose of tolbutamide, as a solution in Cremophor EL (polyoxyl 35 hydrogenated castor oil, Sigma)/ethanol/water (30/10/60, v/v/v), was administered to each rat. After the administration of tolbutamide, serial blood samples were collected up to 12 h after dosing from each rat. The animals were then killed by exsanguination, and the livers were collected.\nAll animals were killed by exsanguination via the abdominal aorta while under carbon dioxide (CO2/O2, 70%/30%) anesthesia. Heparin was used as the anticoagulant. Plasma was separated from the blood by centrifugation (1750 ×g) at 4°C for 20 min. The liver from each animal was excised, weighed, and stored at −80°C. This research has received ethical approval from the institutional animal ethics committee of China Medical University, Taichung, Taiwan."}, "Cytochrome P450": {"test_system": "Cytochrome P450", "assay": "Total CYP content in liver microsomes of treated rats", "type": "in vivo", "conditions": "rat liver microsomes; oral 2 g/kg APE or 50 mg/kg AND daily for 5 days", "description": "(§1) Liver was homogenized (1 : 4, w/v) in an ice-cold potassium phosphate buffer (pH 7.4) containing 7.4 mM K2HPO4, 2.6 mM KH2PO4, 1.15% KCl, and 1 mM phenylmethylsulfonyl fluoride (PMSF). Tissue homogenates were centrifuged at 10,000 ×g for 30 min at 4°C. The resulting supernatant was then centrifuged at 105,000 ×g for 1 h at 4°C. The microsomes thus obtained were washed several times to get rid of possible tolbutamide contamination and this can avoid tolbutamide interference of CYP activity, and the microsomes were then suspended in potassium phosphate buffer (pH 7.7) containing 7.5 mM K2HPO4, 14.5 mM KH2PO4, and 1 mM EDTA. […] Metabolites of each CYP enzyme reaction were determined by LC/MS as reported previously. The contents of total CYP and cytochrome b5 were quantified by the method of Omura and Sato [29]. Enzyme activity is expressed as picomoles of metabolite formed per minute per milligram of protein. The NADPH-CYP reductase activity was measured as described by Phillips and Langdon with the use of cytochrome c as the substrate. The microsomal protein concentration was determined by using a Coomassie Plus protein assay kit (Pierce, Rockford, IL, USA)."}, "CYP1A1": {"test_system": "CYP1A1", "assay": "Ethoxyresorufin O-deethylation in liver microsomes of treated rats", "type": "in vivo", "conditions": "rat liver microsomes; oral 2 g/kg APE or 50 mg/kg AND daily for 5 days", "description": "as §1"}, "CYP4A": {"test_system": "CYP4A", "assay": "Lauric acid 12-hydroxylation in liver microsomes of treated rats", "type": "in vivo", "conditions": "rat liver microsomes; oral 2 g/kg APE or 50 mg/kg AND daily for 5 days", "description": "as §1"}, "[2]": {"test_system": "Glutathione S-transferase", "assay": "GST activity in liver of treated rats", "type": "in vivo", "conditions": "rat liver; oral 2 g/kg APE or 50 mg/kg AND daily for 5 days", "description": "The microsomal UGT activity was determined by using p-nitrophenol as the substrate. The rate of formation of p-nitrophenol glucuronic acid was measured by HPLC/UV [31]. GST activity was determined spectrophotometrically by measuring the formation rate of GSH conjugates."}, "CYP2E1": {"test_system": "CYP2E1", "assay": "Immunoblot and RT-PCR of hepatic CYP2E1 in treated rats", "type": "in vivo", "conditions": "rat liver; APE or andrographolide for 5 days", "description": "Aliquots of microsomal protein (10 μg) were electrophoresed in an SDS-polyacrylamide gel, and proteins were then transferred to polyvinylidene fluoride membranes. After blocking, membranes were hybridized with antibodies to CYP1A1, CYP1A2, CYP2C6, CYP2C11, CYP2D1, CYP2E1, CYP3A1, and CYP3A2.\nTotal RNA in liver samples was extracted by using the Trizol reagent (1 : 20, w/v). […] The sequences for the PCR primers were as follows: for CYP1A1 (forward: 5′-[…]-3′; reverse: 5′-[…]-3′), CYP1A2 (forward: 5′-[…]-3′; reverse: 5′-[…]-3′), CYP2C6 (forward: 5′-[…]-3′; reverse: 5′-[…]-3′), CYP2C11 (forward: 5′-[…]-3′; reverse: 5′-[…]-3′), CYP2D1 (forward: 5′-[…]-3′; reverse: 5′-[…]-3′), CYP2E1 (forward: 5′-[…]-3′; reverse: 5′-[…]-3′), CYP3A1 (forward: 5′-[…]-3′; reverse: 5′-[…]-3′), CYP3A2 (forward: 5′-[…]-3′; reverse: 5′-[…]-3′), and P-glycoprotein (forward: 5′-[…]-3′; reverse: 5′-[…]-3′). The PCR for CYP1A1 was performed as follows: 5 min at 95°C and then 35 cycles of 30 s at 94°C, 30 s at 54°C, and 60 s at 72°C. […] The PCR amplicons were then electrophoresed in 1% agarose gels containing 40 mM Tris/20 mM glacial acetic acid/2 mM EDTA buffer, and the relative densities of the PCR products were quantitated by use of Image Gauge software (Fujifilm, Tokyo, Japan). […]"}},
  "note": "Marks after values point to notes of the source that are not given here.",
  "data": [
    {"smiles": "C=C1CC[C@@H]2[C@](C)(CO)[C@H](O)CC[C@@]2(C)[C@@H]1C/C=C1/C(=O)OC[C@H]1O", "note": "[andrographolide, Andrographolide]", "values": [
      {"measurement": "Relative liver weight", "setting": "[1]; (liver weight/body weight) × 100", "value": "3.8 ± 0.3", "unit": "%"},
      {"measurement": "Body weight, Final", "setting": "[1]; mean ± SD, n = 5", "value": "332 ± 13^a g"},
      {"measurement": "Liver weight", "setting": "[1]; mean ± SD, n = 5", "value": "12.8 ± 1.5", "unit": "g"},
      {"measurement": "Cytochrome P450 content", "setting": "Cytochrome P450", "value": "674 ± 64^b pmol/mg protein"},
      {"measurement": "Ethoxyresorufin O-deethylase (1A1)", "setting": "CYP1A1", "value": "66.6 ± 13.5^b pmol/min/mg protein"},
      {"measurement": "Lauric acid 12-hydroxylase (4A)", "setting": "CYP4A", "value": "214 ± 88", "unit": "pmol/min/mg protein"},
      {"measurement": "Glutathione S-transferase activity", "setting": "[2]", "value": "634 ± 62", "unit": "nmol/min/mg protein"},
      {"measurement": "CYP2E1 protein or mRNA levels compared with controls", "setting": "CYP2E1", "value": "no changes"}
    ]}
  ]
}
